Series [1] has as its target α-glucosidase enzyme type 1 from Baker’s yeast (Saccharomyces cerevisiae, UniProt P53341). The series can be described thus: α-Glucosidase inhibitory assay (p-NPG substrate, absorbance at 405 nm). It is filed as biochemical. As to conditions: for inhibition at 100 µg/mL: 100 µg/mL of each compound, test repeated three times, read-out: average percent inhibition of α-glucosidase; for pIC50: mean of three experiments ± SEM, more than five concentrations. As to the method: Phosphate-buffered saline pH 6.5 was prepared at 20 °C by dissolving sodium phosphate monobasic (1.4 g), sodium chloride (8 g), potassium chloride (0.2 g) and potassium dihydrogen phosphate (0.2 g) in deionized water (1 L). The solution was adjusted to pH 6.5 at 20 °C with 1 M sodium hydroxide (NaOH) or hydrochloric acid (HCl). A 20-mM solution of para-nitrophenyl-α-D-glucopyranoside (p-NPG substrate) was prepared by dissolving […] of p-NPG in 10 mL of buffer solution. The α-glucosidase enzyme solution was prepared by dissolving α-glucosidase enzyme type 1 from Baker’s yeast (1 mg) in cold phosphate-buffered saline (1000 µL), pH 6.5; 50 µL of this solution was mixed into 12 mL of cold phosphate-buffered saline to give a concentration of 0.125 unit/mL. For the screening of samples, 200 µg/mL concentration was prepared in 100% dimethyl sulfoxide (DMSO). Then, two-fold serial dilutions with 5% DMSO were prepared in a 96-well microplate to give final concentrations of 100, 50, 25, 12.5, 6.25, 3.13 and 1.56 µg/mL. […]
A volume of 10 µL of 5% DMSO was added to the 96 wells of the microplate. Then, 10 µL of the stock sample was added to the first well and mixed. Subsequently, 10 µL of the sample from the first well was taken and added to the second well and this procedure was repeated for the two-fold serial dilutions. Next, 20 µL of the α-glucosidase enzyme, 40 µL of phosphate buffered saline at pH 6.5 and 20 µL of deionized water were added to each well in the 96-well microtiter plate and mixed. The mixture was pre-incubated at 37 °C for 10 min. Then, 10 µL of 20 mM p-NPG solution was added to the mixture and the absorbance at 0 min. was measured at 405 nm. The reaction was incubated for 30 min. at 37 °C and the absorbance was then measured. […] Experiments were performed in triplicate. The inhibition activity of α-glucosidase was determined based on the described method by Ahmad et al.. The percent inhibition (%) of α-glucosidase inhibitory activity was calculated using the equation: %inhibition=A30min-A0mincontrol-A30min-A0minexp/A30min-A0mincontrol×100\%
IC50 values are the mean values of three experiments represented as SEM (n = 3). […] Statistical analysis using one-way ANOVA was applied to the results. Nonlinear regression analysis using a four-parameter logistic curve was performed to calculate the IC50 values. The statistical software used were Microsoft Excel 2010 and Sigma Plot (version 14.0 Notebook, Systat Software Inc.).

Data on 23 compounds can be found in article PMC6661812, “Synthesis, biological activity and molecular docking of new tricyclic series as α-glucosidase inhibitors” (BMC Chemistry, 2019).

One may read the melting point as the temperature, or range, at which the solid turns liquid. What is called inhibition is the change of the read-out against control, counted positive when it falls. As usually defined, the pIC50 is the negative decadic logarithm of the IC50, by convention in mol/L.

pIC50: −log10 of the molar value.

Sequence of α-glucosidase enzyme type 1 from Baker’s yeast (P53341 whole entry): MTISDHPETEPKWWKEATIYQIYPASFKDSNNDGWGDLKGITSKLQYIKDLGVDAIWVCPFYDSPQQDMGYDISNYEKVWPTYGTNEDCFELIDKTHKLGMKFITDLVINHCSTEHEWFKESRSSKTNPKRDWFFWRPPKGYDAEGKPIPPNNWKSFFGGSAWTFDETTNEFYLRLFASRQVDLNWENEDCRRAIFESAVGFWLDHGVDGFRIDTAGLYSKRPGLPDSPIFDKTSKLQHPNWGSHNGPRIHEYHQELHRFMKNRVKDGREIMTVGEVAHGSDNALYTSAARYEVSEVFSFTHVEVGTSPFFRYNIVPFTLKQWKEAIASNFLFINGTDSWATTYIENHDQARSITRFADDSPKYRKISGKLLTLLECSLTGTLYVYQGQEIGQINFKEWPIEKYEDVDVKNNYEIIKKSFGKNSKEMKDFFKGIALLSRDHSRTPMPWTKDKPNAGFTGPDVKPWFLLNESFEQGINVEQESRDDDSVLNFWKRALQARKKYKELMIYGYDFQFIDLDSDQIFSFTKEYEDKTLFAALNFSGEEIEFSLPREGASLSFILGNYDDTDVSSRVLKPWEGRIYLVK

The compound `O=c1[nH]c2nc(Oc3ccccc3)nn2c2ncccc12` [Compound 1, 2-phenoxypyrido[3,2-e][1,2,4]triazolo[1,5-a]pyrimidin-5(4H)-one] returned a melting point of 252 to 254 °C. On to `CCn1c(=O)c2cccnc2n2nc(Oc3ccccc3)nc12` [Compound 2a, 4-Ethyl-2-phenoxypyrido[3,2-e][1,2,4]triazolo[1,5-a]pyrimidin-5(4H)-one], for which the melting point fell in the range of 173 to 175 °C. In series [1], the inhibition at 100 µg/mL is > 50% and the pIC50 is 3.52.

With `C=CCn1c(=O)c2cccnc2n2nc(Oc3ccccc3)nc12` [Compound 2b, 4-Allyl-2-phenoxypyrido[3,2-e][1,2,4]triazolo[1,5-a]pyrimidin-5(4H)-one], the melting point fell in the range of 170 to 172 °C. In turn, `O=c1c2cccnc2n2nc(Oc3ccccc3)nc2n1Cc1ccccc1` [Compound 2c, 4-Benzyl-2-phenoxypyrido[3,2-e][1,2,4]triazolo[1,5-a]pyrimidin-5(4H)-one] gave a melting point of 195 to 197 °C.

For the compound `Cc1ccccc1Cn1c(=O)c2cccnc2n2nc(Oc3ccccc3)nc12` [Compound 2d, 4-(2-Methylbenzyl)-2-phenoxypyrido[3,2-e][1,2,4]triazolo[1,5-a]pyrimidin-5(4H)-one], the melting point was 160 to 162 °C. Also, in series [1], the inhibition at 100 µg/mL was > 50% and the pIC50 was 3.76. In turn, `Cc1cccc(Cn2c(=O)c3cccnc3n3nc(Oc4ccccc4)nc23)c1` [Compound 2e, 4-(3-Methylbenzyl)-2-phenoxypyrido[3,2-e][1,2,4]triazolo[1,5-a]pyrimidin-5(4H)-one] had a melting point of 181 to 183 °C. Same read-out and setting: the value for `COc1cccc(Cn2c(=O)c3cccnc3n3nc(Oc4ccccc4)nc23)c1` [Compound 2f, 4-(3-Methoxybenzyl)-2-phenoxypyrido[3,2-e][1,2,4]triazolo[1,5-a]pyrimidin-5(4H)-one] was 189 to 191 °C; that for `O=c1c2cccnc2n2nc(Oc3ccccc3)nc2n1Cc1ccc([N+](=O)[O-])cc1` [Compound 2h, 4-(4-Nitrobenzyl)-2-phenoxypyrido[3,2-e][1,2,4]triazolo[1,5-a]pyrimidin-5(4H)-one] was 150 to 152 °C. On the same count and under the same terms, the value for `O=c1c2cccnc2n2nc(Oc3ccccc3)nc2n1Cc1ccc(Cl)cc1` [Compound 2i, 4-(4-Chlorobenzyl)-2-phenoxypyrido[3,2-e][1,2,4]triazolo[1,5-a]pyrimidin-5(4H)-one] was 144 to 146 °C. Still for that read-out and setting: as for `O=c1c2cccnc2n2nc(Oc3ccccc3)nc2n1CCN1CCOCC1` [Compound 2j, 4-(2-Morpholinoethyl)-2-phenoxypyrido[3,2-e][1,2,4]triazolo[1,5-a]pyrimidin-5(4H)-one], the figure is 169 to 171 °C.

Regarding `O=c1c2cccnc2n2nc(Oc3ccccc3)nc2n1CCN1CCCCC1` [Compound 2k, 2-Phenoxy-4-(2-(piperidin-1-yl)ethyl)pyrido[3,2-e][1,2,4]triazolo[1,5-a]pyrimidin-5(4H)-one], the melting point fell in the range of 200 to 202 °C.

Take `S=c1[nH]c2nc(Oc3ccccc3)nn2c2ncccc12` [Compound 3, 2-phenoxypyrido[3,2-e][1,2,4]triazolo[1,5-a]pyrimidine-5(4H)-thione]: the melting point was 270 to 272 °C. Also, in series [1], the inhibition at 100 µg/mL is > 60% and the pIC50 is 3.78. `COc1cccc(CSc2nc3nc(Oc4ccccc4)nn3c3ncccc23)c1` [Compound 4, 5-((3-methoxybenzyl)thio)-2-phenoxypyrido[3,2-e][1,2,4]triazolo[1,5-a]pyrimidine] registered a melting point of 149 to 151 °C. On the same count and under the same terms, as for `Clc1nc2nc(Oc3ccccc3)nn2c2ncccc12` [Compound 5, 5-chloro-2-phenoxypyrido[3,2-e][1,2,4]triazolo[1,5-a]pyrimidine], the figure is 190 to 192 °C. As to `c1ccc(Nc2nc3nc(Oc4ccccc4)nn3c3ncccc23)cc1` [Compound 6a, 2-Phenoxy-N-phenylpyrido[3,2-e][1,2,4]triazolo[1,5-a]pyrimidin-5-amine], the melting point was 251 to 253 °C. For the same compound, in series [1], the inhibition at 100 µg/mL was > 50% and the pIC50 is 3.81. The compound `Cc1ccc(Nc2nc3nc(Oc4ccccc4)nn3c3ncccc23)cc1` [Compound 6b, 2-Phenoxy-N-(p-tolyl)pyrido[3,2-e][1,2,4]triazolo[1,5-a]pyrimidin-5-amine] showed a melting point of 162 to 164 °C. In series [1], the inhibition at 100 µg/mL was > 50% and the pIC50 was 3.68. The corresponding values for `COc1ccc(Nc2nc3nc(Oc4ccccc4)nn3c3ncccc23)cc1` [Compound 6c, N-(4-Methoxyphenyl)-2-phenoxypyrido[3,2-e][1,2,4]triazolo[1,5-a]pyrimidin-5-amine] are 174 to 176 °C, > 60% and 3.75.

`CCOc1ccc(Nc2nc3nc(Oc4ccccc4)nn3c3ncccc23)cc1` [Compound 6d, N-(4-Ethoxyphenyl)-2-phenoxypyrido[3,2-e][1,2,4]triazolo[1,5-a]pyrimidin-5-amine] registered a melting point of 154 to 156 °C. In series [1], the inhibition at 100 µg/mL is > 60% and the pIC50 is 3.86. Compound `ONc1nc2nc(Oc3ccccc3)nn2c2ncccc12` [Compound 6e, N-(2-phenoxypyrido[3,2-e][1,2,4]triazolo[1,5-a]pyrimidin-5-yl)hydroxylamine] came in with a melting point of 249 to 251 °C.

For `NNc1nc2nc(Oc3ccccc3)nn2c2ncccc12` [Compound 6f, 5-hydrazinyl-2-phenoxypyrido[3,2-e][1,2,4]triazolo[1,5-a]pyrimidine], the melting point was 241 to 243 °C.

`COc1ccc(O)c(/C=N/Nc2nc3nc(Oc4ccccc4)nn3c3ncccc23)c1` [Compound 6g, (E)-4-Methoxy-2-((2-(2-phenoxypyrido[3,2-e][1,2,4]triazolo[1,5-a]pyrimidin-5-yl)hydrazono)methyl)phenol] displayed a melting point of 220 to 222 °C.

`COc1ccccc1/C=N/Nc1nc2nc(Oc3ccccc3)nn2c2ncccc12` [Compound 6h, (E)-5-(2-(2-Methoxybenzylidene)hydrazinyl)-2-phenoxypyrido[3,2-e][1,2,4]triazolo[1,5-a]pyrimidine] registered a melting point of 111 to 113 °C. Also, in series [1], the inhibition at 100 µg/mL was > 50% and the pIC50 is 3.98.

For `O=C(NNc1nc2nc(Oc3ccccc3)nn2c2ncccc12)c1ccncc1` [Compound 6i, N’-(2-phenoxypyrido[3,2-e][1,2,4]triazolo[1,5-a]pyrimidin-5-yl)isonicotinohydrazide], the melting point lay in the range of 163 to 165 °C.
